From patent US5922554A, “Inhibition of cellular uptake of cholesterol” (The Regents of the University of California, priority 1996, dated 1999)

Experiments:
[1] = test system: fibroblast monolayers; assay: Influx/uptake of ^3 H-FC (free cholesterol) from labeled LDL (or plasma, HDL) into normal fibroblast monolayers; format: cell-based, human
[2] = test system: fibroblast monolayers; assay: Distribution of cell-associated LDL ^3 H-FC label by release with unlabeled lipoproteins/plasma; format: cell-based, human; conditions: 2 mM NEM; 10 min, 37° C. with 80% v/v plasma-PBS; control 0.57 ± 0.03
Method: Label released by unlabeled LDL (open circles); label released by unlabeled HDL but not unlabeled LDL (closed triangles) and label released with neither LDL or HDL (closed circles) expressed as percent of total label released. LDL specific activity was […]. All fractions are defined in terms of label released by either unlabeled lipoprotein within 5 min of incubation at 37° C.
Cell monolayers equilibrated with 7% plasma-DMEM were first incubated with ^3 H-FC labeled LDL as described above. At intervals, dishes of cells were washed, then incubated with unlabeled LDL or HDL at their plasma concentrations. A fraction of cell-associated label was rapidly released; maximum recovery in the medium occurred within 10 min at 37° C. In FIG. 4, the proportions of cell label which were LDL-releasable, LDL-resistant but HDL-releasable, and resistant to both LDL and HDL are shown as a function of time.
^b Proportion of cell cholesterol label retained in the cells

SMILES: CCN1C(=O)C=CC1=O [N-ethylmaleimide]
- inhibition of LDL-FC pathway (summary, words) [1]: inhibited
- effect on cellular uptake of LDL FC in first 10-15 min of incubation ([1]; 30 min preincubation, FIG. 8): no effect
- IC (maximal) ([1]; Homo sapiens, Fibroblast, read-out: concentration for maximal inhibition): 2000 to 5000 µM
- FC Influx ([1]; LDL-FC 60.2 μg ml^-1, 60 min, 37° C., 30 min preequilibration with inhibitor at: Na-azide 1 mM, NH4-vanadate 1 mM, NEM 2 mM, KNO3 50 mM, progesterone 30 μM, forskolin 30 μM, IBMX 100 μM, chloroquine 20 μM): 0.40 ± 0.01 µg
- inhibition of uptake of free cholesterol from LDLs (summary) ([1]; NEM or KNO3, Example 1, FIG. 8): > 80%
- effect on LDL FC uptake ([1]; Table 3 conditions): blocks selective uptake of FC from LDL
- time to complete inhibition by NEM ([1]; cells prelabeled to equilibrium (24 h) with ^3 H-FC): ≤ 30 min
- FC Influx, % (PBS only = 100.0) ([1]; same concentrations and conditions as Table 3 FC influx, 60 min): 30.0%
- inhibition of uptake of ^3 H-FC from LDL on further incubation ([1]; time course, 30 min preincubation, after 10-15 min, FIG. 8 (5 mM NEM)): > 80%
- Lipoprotein-resistant label (proportion of cell cholesterol label retained) [2]: 0.24 ± 0.03
